Assay results published in paper PMC10349806 (Nature Communications, 2023).
Where a chain is given by its changes, count along the chain named. “And” between values parts separate entries of the source, which are not always exact repeats. Identical values can stand only once.

How the values were obtained:
PfCRT variant E204A = molecular target: T1, PfCRT variant E204A (Plasmodium falciparum, UniProt Q9N623, A220S/E204A/I356T/K76T/M74I/N326S/N75E/Q271E/R371I); test: CQ uptake assay, oocytes expressing E204A; assay type: cell-based
T1 sequence (Q9N623 1-424 M74I/N75E/K76T/E204A/A220S/Q271E/N326S/I356T/R371I): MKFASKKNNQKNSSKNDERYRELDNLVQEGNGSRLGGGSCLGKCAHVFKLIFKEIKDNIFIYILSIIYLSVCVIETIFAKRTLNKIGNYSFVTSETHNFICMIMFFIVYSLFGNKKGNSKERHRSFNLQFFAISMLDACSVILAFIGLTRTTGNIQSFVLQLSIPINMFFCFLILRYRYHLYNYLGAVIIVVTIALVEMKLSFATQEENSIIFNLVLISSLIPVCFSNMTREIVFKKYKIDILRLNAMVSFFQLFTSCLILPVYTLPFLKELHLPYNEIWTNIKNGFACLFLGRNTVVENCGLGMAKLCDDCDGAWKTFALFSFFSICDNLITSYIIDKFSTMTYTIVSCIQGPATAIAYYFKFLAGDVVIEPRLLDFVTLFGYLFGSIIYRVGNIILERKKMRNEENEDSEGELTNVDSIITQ
Experimental: (§1) Site-directed mutagenesis of PfCRT^Dd2 was performed as described using the megaprimer method with overlap extension[21],[54]. The primer pairs used are listed in Supplementary Table 6. Please note that a codon-optimized and oocyte-adapted version of PfCRT^Dd2 was used[22] (Supplementary Fig. 16). The resulting DNA fragment was cloned into the SP64T expression vector and verified by sequencing.
(§2) Oocytes were obtained as described previously. Briefly, adult (>2 years old) female X. laevis frogs (NASCO) were anesthetized in a cooled solution of ethyl 3-amino benzoate methanesulfonate (0.1%, w/v), followed by a surgical removal of parts of the ovary. The ovary lobes were carefully dissected and small pieces of oocytes were incubated in Ca^2+-free ND96 buffer (96 mM NaCl, 2 mM KCl, 1 mM MgCl2 buffered with 5 mM HEPES/NaOH, pH 7.5) supplemented with collagenase D (0.1%, w/v; Roche), BSA (0.5%, w/v), and 9 mm Na2HPO4 at 18 °C for 14-16 h while gentle shaking. After incubation, the oocytes were carefully washed several times with ND96 buffer (96 mM NaCl, 2 mM KCl, 1.8 mM CaCl2, 1 mM MgCl2 buffered with 5 mM HEPES/NaOH, pH 7.5) supplemented with 100 mg l^−1 gentamycin). Defolliculated and healthy-looking stage V-VI oocytes were manually selected for RNA microinjection. The RNA was generated as following: The codon-optimized sequences of PfCRT variants were cloned into the pSP64T expression vector. After vector linearization using the restriction endonucleases BamHI or SalI (New England Biolabs), transcription was performed using the in vitro SP6 mMessage mMachine Kit (Ambion)[34]. The obtained RNA was kept at −80 °C and diluted with nuclease-free water to a concentration of 0.6 μg μl^−1. Precision-bore glass capillary tubes (3.5-inch glass capillaries; Drummond Scientific Co.) were pulled on a vertical puller (P-87 Flaming/Brown micropipette puller, Sutter Instrument Co.), graduated, and placed on a microinjector (Nanoject II Auto-Nanoliter Injector, Drummond Scientific Co.). 50 nl of nuclease-free water alone (control oocytes) or 50 nl of 0.6 μg μl^−1 RNA were injected under stereomicroscopic control. Injected oocytes were incubated for 46–72 h at 18 °C with twice-daily buffer changes before usage in experiments.
(§3) Drug uptake assays were performed as described previously[21],[22],[24],[34]. […] The direction of radio-labeled drug transport is here from the mostly acidic extracellular solution (pH 4.5 or 6.0, as indicated) into the oocyte cytosol (pH ∼ 7.2), which corresponds to the efflux of drug from the acidic digestive vacuole (pH 5.2) into the parasite cytoplasm (pH 7.2). The topology of PfCRT in the oolemma is such that both the N- and C-terminus face the extracellular milieu[3],[22]. In the parasite, the N- and C-terminus face the lumen of the digestive vacuole. CQ uptake kinetics were performed by incubating oocytes in ND96 buffer adjusted to a pH of 4.5, 5.0, 5.5, or 6.0 and supplemented with 50 nM [^3H]CQ and one of 7 different CQ concentrations (10 µM, 50 µM, 100 µM, 200 µM, 300 µM, 400 µM, 500 µM CQ). The reaction was stopped at the 60 min time point, which is in the linear uptake range[22],[34] (Supplementary Fig. 17). For determination of the amount of drug uptake for each oocyte, the reaction medium was removed and the oocytes were washed three times with 2 ml of ice-cold ND96 buffer. Each oocyte was individually transferred to a scintillation vial containing 5% sodium dodecyl sulfate (200 μl) for lysis. The radioactivity of each sample was measured using a liquid scintillation analyzer Tri-Carb 4910 TR (PerkinElmer). Oocytes that were injected with water instead of RNA were analyzed in parallel, representing the uptake of a drug by diffusion and/or endogenous permeation pathways. The resulting value represents the “background“ level of drug accumulation in oocytes (in-depth discussion in[22]). […]

[1] = molecular target: T2, PfCRT variant CD2 (D24A, D57A, Y179A, F235A, D241A, E406A, D419A) (Plasmodium falciparum, UniProt Q9N623, A220S/D241A/D24A/D419A/D57A/E406A/F235A/I356T/K76T/M74I/N326S/N75E/Q271E/R371I/Y179A); test: CQ uptake assay, oocytes expressing CD2; assay type: cell-based
T2 sequence (Q9N623 1-424 D24A/D57A/M74I/N75E/K76T/Y179A/A220S/F235A/D241A/Q271E/N326S/I356T/R371I/E406A/D419A): T1 sequence (Q9N623 1-424 M74I/N75E/K76T/E204A/A220S/Q271E/N326S/I356T/R371I) with D24A, D57A, Y179A, A204E, F235A, D241A, E406A, D419A
Experimental: as §1, §2, §3

[2] = E204A, 50 µM CQ, 1 h, mean ± SEM
[3] = pH 4.5, single replicates, Fig 1d left
[4] = pH 6.0, single replicates, Fig 1d left

CCN(CC)CCCC(C)Nc1ccnc2cc(Cl)ccc12 (stereo not drawn) [CQ, chloroquine]
Activity at pH 4.5 (PfCRT variant E204A; [2]): 1.43 ± 0.06 pmol h-1 oocyte-1
Activity at pH 6.0 (PfCRT variant E204A; [2]): 2.98 ± 0.34 pmol h-1 oocyte-1
R-value (PfCRT variant E204A; E204A, CQ transport at pH 4.5 / pH 6.0): 0.51 ± 0.09
E204A transport activity pH 4.5 (PfCRT variant E204A; [3]): 1.57 pmol oocyte-1 h-1 and 1.35 pmol oocyte-1 h-1 and 1.36 pmol oocyte-1 h-1
E204A R-value (PfCRT variant E204A; pH 4.5 vs pH 6.0, Fig 1d left): 0.72 and 0.42 and 0.38
E204A transport activity pH 6.0 (PfCRT variant E204A; [4]): 2.18 pmol oocyte-1 h-1 and 3.22 pmol oocyte-1 h-1 and 3.54 pmol oocyte-1 h-1
Activity at pH 4.5 ([1]; CD2, 50 µM CQ, 1 h, mean ± SEM): 1.26 ± 0.05 pmol h-1 oocyte-1
Activity at pH 6.0 ([1]; CD2, 50 µM CQ, 1 h, mean ± SEM): 2.31 ± 0.23 pmol h-1 oocyte-1
R-value ([1]; CD2, CQ transport at pH 4.5 / pH 6.0): 0.56 ± 0.05
CD2 transport activity pH 4.5 [1, 3]: 1.18 pmol oocyte-1 h-1 and 1.21 pmol oocyte-1 h-1 and 1.38 pmol oocyte-1 h-1
CD2 R-value ([1]; pH 4.5 vs pH 6.0, Fig 1d left): 0.68 and 0.46 and 0.54
CD2 transport activity pH 6.0 [1, 4]: 1.74 pmol oocyte-1 h-1 and 2.62 pmol oocyte-1 h-1 and 2.56 pmol oocyte-1 h-1
